Laboratory results as given in patent US11530244B2, “Cyclic polypeptides for PCSK9 inhibition” (priority 2018, dated 2022).
pIC50: −log10 of the molar value. Starred links: 1 amine or outer side, 2 acyl side, 3 side chain; linkers in the order of their positions; H or OH if unused. Positions of bridges follow the written chain, without caps; N, C: chain ends. Non-standard residues stand in square brackets, D forms with d. Residues, ends and D or L forms follow the SMILES beside them. X38 = NC(=O)[C@H](CSCc1cccc(C[*:1])c1)NC(=O)[C@@H]1CCCC1C(=O)[C@H](Cc1ccc(OCC2CCCCC2)cc1)N[*:2]; NMeTrp(1-Me) = CN[C@@H](Cc1cn(C)c2ccccc12)C(=O)O; Phe(4-COOH) = N[C@@H](Cc1ccc(C(=O)O)cc1)C(=O)O; Trp(5-F) = N[C@@H](Cc1c[nH]c2ccc(F)cc12)C(=O)O; Trp(7-aza) = N[C@@H](Cc1c[nH]c2ncccc12)C(=O)O; Phe(4-CH2NH2) = NCc1ccc(C[C@H](N)C(=O)O)cc1; X16 = O=C([C@H](CCCCCC=[*:3])N[*:1])[*:2]; Pro(cis-4-F) = O=C(O)[C@@H]1C[C@H](F)CN1; X12 = O=C([C@H](CCCCC=[*:3])N[*:1])[*:2]; Dip = N[C@H](C(=O)O)C(c1ccccc1)c1ccccc1; X4 = O=C(CCSCc1cccc(CSCCN[*:1])c1)[*:2]; Hag = O=C([C@H](CCC=[*:3])N[*:1])[*:2]; 2Nal = N[C@@H](Cc1ccc2ccccc2c1)C(=O)O; mXylylene = c1cc(C[*:1])cc(C[*:2])c1; AEF = NCCOc1ccc(C[C@H](N)C(=O)O)cc1; Glutaryl = O=C(CCCC(=O)[*:2])[*:1]; X34 = O=C(CCC1CCN([*:1])CC1)[*:2]; X6 = O=C(Cc1ccc(CN[*:2])cc1)[*:1]; dNMeL = CN[C@H](CC(C)C)C(=O)O; αMeP = C[C@@]1(C(=O)O)CCCN1; dDab = NCC[C@@H](N)C(=O)O; Orn = NCCC[C@H](N)C(=O)O; Nva = CCC[C@H](N)C(=O)O; X2 = O=C(C[*:2])[*:1]; Aib = CC(C)(N)C(=O)O; Ava = NCCCCC(=O)O; Mpa = O=C(O)CCS

What was measured:
[1] = target: human PCSK9 / human LDLR EGFa domain interaction (Homo sapiens (Human), UniProt Q8NBP7); assay: TR-FRET assay of inhibition of the PCSK9-LDLR protein-protein interaction; type: binding; conditions: TR-FRET, 20 nM human PCSK9, 20 nM human LDLR EGFa domain, 2 hours room temperature; read-out: IC50
human PCSK9 / human LDLR EGFa domain interaction, sequence (Q8NBP7 153-692): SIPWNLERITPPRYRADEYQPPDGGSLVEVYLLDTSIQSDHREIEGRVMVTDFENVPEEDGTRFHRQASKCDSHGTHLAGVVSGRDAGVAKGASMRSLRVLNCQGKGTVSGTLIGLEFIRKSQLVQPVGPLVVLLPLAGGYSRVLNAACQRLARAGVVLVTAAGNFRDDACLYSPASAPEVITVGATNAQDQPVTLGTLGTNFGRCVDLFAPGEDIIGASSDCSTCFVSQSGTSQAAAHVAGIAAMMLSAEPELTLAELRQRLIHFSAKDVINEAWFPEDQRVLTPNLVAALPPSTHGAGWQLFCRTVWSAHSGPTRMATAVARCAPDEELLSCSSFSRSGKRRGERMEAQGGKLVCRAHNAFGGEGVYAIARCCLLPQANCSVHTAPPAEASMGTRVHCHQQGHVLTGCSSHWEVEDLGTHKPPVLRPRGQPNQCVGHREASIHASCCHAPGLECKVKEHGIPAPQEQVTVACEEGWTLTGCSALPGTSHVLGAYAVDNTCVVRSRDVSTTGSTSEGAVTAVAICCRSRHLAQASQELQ
human PCSK9 / human LDLR EGFa domain interaction, sequence (Q8NBP7 31-152 partner): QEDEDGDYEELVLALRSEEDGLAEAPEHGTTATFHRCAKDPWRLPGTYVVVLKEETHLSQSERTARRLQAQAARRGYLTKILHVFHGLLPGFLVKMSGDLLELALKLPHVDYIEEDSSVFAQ
Method in brief: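 Inhibition of PCSK9 binding to the LDLR EGFa domain, each protein at 20 nM, detected by TR-FRET using streptavidin and anti-His donor/acceptor labels (5 nM). Two-hour room-temperature incubation in calcium-containing HEPES buffer.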

PCSK9 = PCSK9 (Homo sapiens (Human), UniProt Q8NBP7); assay: PCSK9 Alexa FRET Standard assay (displacement of AlexaFluor647 tagged cyclic peptide Reagent A); type: binding; conditions: PCSK9 Alexa FRET Standard assay, 0.5 nM PCSK9, 20 nM AF cyclic peptide Reagent A; read-out: IC50
PCSK9, sequence (Q8NBP7 153-692): as the sequence (Q8NBP7 153-692) above
Method in brief: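 TR-FRET displacement: 0.5 nM biotinylated PCSK9 with 1.25 nM Strep-Eu and 20 nM AlexaFluor-tagged cyclic peptide (final) in 50 mM HEPES pH 7.4, 0.15 M NaCl, 5 mM CaCl2, 0.01% BSA, 0.01% P20, ≥2 h at room temperature. IC50 from sigmoidal fit, converted to Ki via peptide KD; falling Eu counts flagged false positives.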

| SMILES | pIC50 [1] | pIC50 (PCSK9) |
| --- | --- | --- |
| NCCC[C@@H]1NC(=O)CCSCc2cccc(c2)CSC[C@@H](C(N)=O)NC(=O)[C@@H]2CCCC2C(=O)[C@H](Cc2ccc(OCC3CCCCC3)cc2)NC(=O)[C@H](Cc2cnc[nH]2)NC(=O)[C@H](CC(=O)O)NC(=O)[C@H](Cc2c[nH]c3ccc(F)cc23)NC(=O)[C@H](Cc2c[nH]c3ccc(F)cc23)NC(=O)CNC1=O (stereo partly drawn) [Compound 340] ([Mpa][Orn]G[Trp(5-F)][Trp(5-F)]DH; linker 1-C via X38) | 7.00 to 10.00 | 6.00 to 7.00 |
| COc1ccc(C[C@@H]2NC(=O)[C@H]([C@@H](C)O)NC(=O)[C@@H]3C[C@H](F)CN3C(=O)[C@H](Cc3c[nH]c4ccc(F)cc34)NC(=O)[C@H](Cc3c[nH]c4ccc(F)cc34)NC(=O)[C@@H](C)NC(=O)[C@H](CCCCN)NC(=O)[C@@H](NC(C)=O)CC(=O)NCc3ccc(cc3)C[C@@H](C(N)=O)NC(=O)[C@]3(C)CCCN3C2=O)cc1 [Compound 066] (Ac-DK[dA][Trp(5-F)][Trp(5-F)][Pro(cis-4-F)]TY(Me)[αMeP][Phe(4-CH2NH2)]-NH2; lactam 1-10) | 7.00 to 10.00 | 7.00 to 9.96 |
| COc1ccc(C[C@@H]2NC(=O)[C@H]([C@@H](C)O)NC(=O)[C@]3(C)CCCN3C(=O)[C@H](Cc3c[nH]c4ccc(F)cc34)NC(=O)[C@H](Cc3c[nH]c4ccc(F)cc34)NC(=O)[C@@H](C)NC(=O)[C@H](CCCCN)NC(=O)CCSCc3cccc(c3)CSCCNC(=O)[C@]3(C)CCCN3C2=O)cc1 [Compound 025] (cyclo(K[dA][Trp(5-F)][Trp(5-F)][αMeP]TY(Me)[αMeP][X4])) | 6.00 to 7.00 | 6.00 to 7.00 |
| CC(=O)N[C@H]1CCCNC(=O)COc2ccc(cc2)C[C@@H](C(N)=O)NC(=O)[C@]2(C)CCCN2C(=O)[C@H](Cc2ccc(O)cc2)NC(=O)[C@H](Cc2cnc[nH]2)NC(=O)[C@H](CC(=O)O)NC(=O)[C@H](Cc2c[nH]c3ccc(F)cc23)NC(=O)[C@H](Cc2c[nH]c3ccc(F)cc23)NC(=O)CNC(=O)[C@H](C)NC1=O [Compound 364] (Ac-[Orn]AG[Trp(5-F)][Trp(5-F)]DHY[αMeP]Y-NH2; linker 1-10 via X2) | 6.00 to 7.00 | 6.00 to 7.00 |
| COc1ccc(C[C@@H]2NC(=O)[C@H](Cc3cnc[nH]3)NC(=O)[C@H](CC(=O)O)NC(=O)[C@H](Cc3c[nH]c4ccc(F)cc34)NC(=O)[C@H](Cc3c[nH]c4ccc(F)cc34)NC(=O)[C@@H](C)NC(=O)CCCCNC(=O)c3ccc(cc3)C[C@@H](C(N)=O)NC(=O)[C@]3(C)CCCN3C2=O)cc1 [Compound 380] ([Ava][dA][Trp(5-F)][Trp(5-F)]DHY(Me)[αMeP][Phe(4-COOH)]-NH2; lactam N-9) | 4.30 to 4.68 | 4.30 to 4.68 |
| C[C@H]1NC(=O)[C@H](CCCCN)NC(=O)CCSCc2cccc(c2)CSC[C@@H](C(N)=O)NC(=O)[C@]2(C)CCCN2C(=O)[C@H](Cc2ccc(O)cc2)NC(=O)C(C)(C)NC(=O)[C@@H]2CCCN2C(=O)[C@H](Cc2c[nH]c3ccc(F)cc23)NC(=O)[C@H](Cc2c[nH]c3ccc(F)cc23)NC1=O [Compound 005] ([Mpa]K[dA][Trp(5-F)][Trp(5-F)]P[Aib]Y[αMeP]C-NH2; linker 1-10 via mXylylene) | 7.00 to 10.00 | 6.00 to 7.00 |
| C[C@@]12CCCN1C(=O)[C@H](Cc1c[nH]c3ncccc13)NC(=O)[C@H](Cc1cnc[nH]1)NC(=O)[C@H](CC(=O)O)NC(=O)[C@H](Cc1c[nH]c3ccc(F)cc13)NC(=O)[C@H](Cc1c[nH]c3ccc(F)cc13)NC(=O)CNC(=O)[C@H](CCCCN)NC(=O)CCSCc1cccc(c1)CSC[C@@H](C(N)=O)NC2=O [Compound 360] ([Mpa]KG[Trp(5-F)][Trp(5-F)]DH[Trp(7-aza)][αMeP]C-NH2; linker 1-10 via mXylylene) | 7.00 to 10.00 | 6.00 to 7.00 |
| C[C@@]12CCCN1C(=O)[C@H](Cc1ccc(O)cc1)NC(=O)[C@H](Cc1cnc[nH]1)NC(=O)[C@H](CC(=O)O)NC(=O)[C@H](Cc1c[nH]c3ccc(F)cc13)NC(=O)[C@H](Cc1c[nH]c3ccc(F)cc13)NC(=O)CNC(=O)[C@@H](CCN)NC(=O)CCSCc1cccc(c1)CSC[C@@H](C(N)=O)NC2=O [Compound 355] ([Mpa][dDab]G[Trp(5-F)][Trp(5-F)]DHY[αMeP]C-NH2; linker 1-10 via mXylylene) | 6.00 to 7.00 | 6.00 to 7.00 |
| COc1ccc(C[C@@H]2NC(=O)[C@H]([C@@H](C)O)NC(=O)[C@@H]3CCCC/C=C\CCCC[C@H](NC(=O)[C@@H](C)NC(=O)[C@H](C)NC(=O)CCSCc4cccc(c4)CSCCNC(=O)[C@]4(C)CCCN4C2=O)C(=O)N[C@@H](Cc2c[nH]c4ccc(F)cc24)C(=O)N3)cc1 [Compound 495] (cyclo(A[dA][X12][Trp(5-F)][X12]TY(Me)[αMeP][X4]); staple (Z) 3-5) | 6.00 to 7.00 | 7.00 to 9.96 |
| CCC[C@@H]1NC(=O)CCSCc2cccc(c2)CSC[C@@H](C(N)=O)NC(=O)[C@@H]2CCCN2C(=O)[C@H](Cc2ccc(OC)cc2)NC(=O)[C@H]([C@@H](C)OC)NC(=O)[C@@H]2CCCN2C(=O)[C@H](Cc2cn(C)c3ccccc23)N(C)C(=O)[C@H](Cc2ccc3ccccc3c2)NC(=O)[C@@H](CC(C)C)N(C)C1=O [Compound 038] ([Mpa][Nva][dNMeL][2Nal][NMeTrp(1-Me)]PT(Me)Y(Me)PC-NH2; linker 1-10 via mXylylene) | 7.00 to 10.00 | 7.00 to 9.96 |
| COc1ccc(C[C@@H]2NC(=O)[C@H]([C@@H](C)O)NC(=O)[C@@H]3CCCCC/C=C/CC[C@H](NC(=O)[C@@H](C)NC(=O)[C@H](C)NC(=O)CCSCc4cccc(c4)CSCCNC(=O)[C@]4(C)CCCN4C2=O)C(=O)N[C@@H](Cc2c[nH]c4ccc(F)cc24)C(=O)N3)cc1 [Compound 496] (cyclo(A[dA][Hag][Trp(5-F)][X16]TY(Me)[αMeP][X4]); staple (E) 3-5) | 6.00 to 7.00 | 6.00 to 7.00 |
| COc1ccc(C[C@@H]2NC(=O)[C@H]([C@@H](C)O)NC(=O)[C@@H]3C[C@H](F)CN3C(=O)[C@H](Cc3c[nH]c4ccc(F)cc34)NC(=O)[C@H](Cc3c[nH]c4ccc(F)cc34)NC(=O)[C@@H](C)NC(=O)[C@H](CCCCN)NC(=O)[C@@H](NC(C)=O)CC(=O)NCCOc3ccc(cc3)C[C@@H](C(N)=O)NC(=O)[C@]3(C)CCCN3C2=O)cc1 [Compound 067] (Ac-DK[dA][Trp(5-F)][Trp(5-F)][Pro(cis-4-F)]TY(Me)[αMeP][AEF]-NH2; lactam 1-10) | 7.00 to 10.00 | 6.00 to 7.00 |
| COc1ccc(C[C@@H]2NC(=O)[C@@H]3CCCCCCO[C@H]4C[C@@H](C(=O)N3)N(C4)C(=O)[C@H](Cc3c[nH]c4ccc(F)cc34)NC(=O)[C@H](Cc3c[nH]c4ccc(F)cc34)NC(=O)[C@@H](C)NC(=O)[C@H](CCCCN)NC(=O)CCSCc3cccc(c3)CSC[C@@H](C(N)=O)NC(=O)[C@]3(C)CCCN3C2=O)cc1 [Compound 506] | 6.00 to 7.00 | 6.00 to 7.00 |
| COc1ccc(C[C@@H]2NC(=O)[C@H]([C@@H](C)O)NC(=O)[C@@H]3C[C@H](F)CN3C(=O)[C@H](Cc3c[nH]c4ccc(F)cc34)NC(=O)[C@H](Cc3c[nH]c4ccc(F)cc34)NC(=O)[C@@H](C)NC(=O)[C@H](CCCCN)NC(=O)CCC/C=C\Cc3ccc(cc3)C[C@@H](C(N)=O)NC(=O)[C@]3(C)CCCN3C2=O)cc1 [Compound 132] | 4.30 to 4.68 | 4.30 to 4.68 |
| COc1ccc(C[C@@H]2NC(=O)[C@H](Cc3cnc[nH]3)NC(=O)[C@H](CC(=O)O)NC(=O)[C@H](Cc3c[nH]c4ccc(F)cc34)NC(=O)[C@H](Cc3c[nH]c4ccc(F)cc34)NC(=O)[C@@H](C)NC(=O)CCCC(=O)NCCOc3ccc(cc3)C[C@@H](C(N)=O)NC(=O)[C@]3(C)CCCN3C2=O)cc1 [Compound 400] ([dA][Trp(5-F)][Trp(5-F)]DHY(Me)[αMeP][AEF]-NH2; linker N-8 via Glutaryl) | 6.00 to 7.00 | 4.92 to 6.00 |
| COc1ccc(C[C@@H]2NC(=O)[C@H](Cc3cnc[nH]3)NC(=O)[C@H](CC(=O)O)NC(=O)[C@H](Cc3c[nH]c4ccc(F)cc34)NC(=O)[C@H](Cc3c[nH]c4ccc(F)cc34)NC(=O)[C@@H](C)NC(=O)[C@H](NC(C)=O)CCCCNC(=O)Cc3ccc(cc3)CNC(=O)C[C@@H](C(N)=O)NC(=O)[C@]3(C)CCCN3C2=O)cc1 [Compound 397] (Ac-[dK][dA][Trp(5-F)][Trp(5-F)]DHY(Me)[αMeP]D-NH2; linker 1-9 via X6) | 4.92 to 6.00 | 4.92 to 6.00 |
| COc1ccc(C[C@@H]2NC(=O)[C@H](Cc3cnc[nH]3)NC(=O)[C@H](CC(=O)O)NC(=O)[C@H](Cc3c[nH]c4ccc(F)cc34)NC(=O)[C@H](Cc3c[nH]c4ccc(F)cc34)NC(=O)[C@H](C)NC(=O)CCC3CCN(CC3)C(=O)[C@H](CC(N)=O)NC(=O)[C@]3(C)CCCN3C2=O)cc1 [Compound 404] (cyclo(A[Trp(5-F)][Trp(5-F)]DHY(Me)[αMeP]N[X34])) | 6.00 to 7.00 | 4.92 to 6.00 |
| C[C@H]1NC(=O)[C@H](CCCCN)NC(=O)CCSCc2cccc(c2)CSCCNC(=O)[C@]2(C)CCCN2C(=O)[C@H](C(c2ccccc2)c2ccccc2)NC(=O)[C@H](Cc2cnc[nH]2)NC(=O)[C@H](CC(=O)O)NC(=O)[C@H](Cc2c[nH]c3ccc(F)cc23)NC(=O)[C@H](Cc2c[nH]c3ccc(F)cc23)NC1=O [Compound 406] (cyclo(DH[Dip][αMeP][X4]K[dA][Trp(5-F)][Trp(5-F)])) | 7.00 to 10.00 | 6.00 to 7.00 |
